According to patent US20250154154A1 (Relay Binney Street, 2nd Floor, priority 2020, published 2025):
Counter-ions that a name gives are not always drawn.

Tests used:
SRC = SRC (Homo sapiens, UniProt P12931); experiment: SRC Biochemical Assay Protocol (microfluidic mobility shift assay, FLPeptide4 substrate)
Outline: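 Mobility-shift readout of phosphorylated FLPeptide4 (1.5 μM) after 90 min kinase reaction with 50 μM ATP and 0.26 nM SRC in pH 7.4 HEPES buffer. Compounds, tested 0.0017–100 μM, were preincubated 30 min with enzyme and peptide; IC50 from 4-parameter logistic fit versus neutral controls.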

[1] = system: phospho-S6RP (Ser 235/236) in RBE cells; experiment: Cellular Proliferation Protocol (cellular phospho-S6RP HTRF), RBE cells; type: cell-based; conditions: 6 hours treatment, RBE or SNU-1079 cells, cell line not given
Outline: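 Phospho-S6RP (Ser 235/236) was quantified by HTRF in lysed RBE cells (2000/well) after a 6 h treatment at 37° C, with overnight antibody incubation at room temperature. IC50 values came from 4-parameter dose-response fits relative to DMSO vehicle.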

RBE cells = experiment: Cell Viability Protocol (CellTiterGlo), RBE cells; type: cell-based; conditions: RBE or SNU-1079 cells, 72 or 120 hour, cell line and time not given
Outline: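 After 72 h or 120 h compound exposure at 37° C, viability was read by CellTiterGlo as % of DMSO vehicle, with IC50 fitted by a 4-parameter curve. Cells had been seeded at 1200/well in 10% FBS RPMI 1640 and allowed 24 h before dosing.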

Sequence of SRC (P12931 whole entry, species assumed): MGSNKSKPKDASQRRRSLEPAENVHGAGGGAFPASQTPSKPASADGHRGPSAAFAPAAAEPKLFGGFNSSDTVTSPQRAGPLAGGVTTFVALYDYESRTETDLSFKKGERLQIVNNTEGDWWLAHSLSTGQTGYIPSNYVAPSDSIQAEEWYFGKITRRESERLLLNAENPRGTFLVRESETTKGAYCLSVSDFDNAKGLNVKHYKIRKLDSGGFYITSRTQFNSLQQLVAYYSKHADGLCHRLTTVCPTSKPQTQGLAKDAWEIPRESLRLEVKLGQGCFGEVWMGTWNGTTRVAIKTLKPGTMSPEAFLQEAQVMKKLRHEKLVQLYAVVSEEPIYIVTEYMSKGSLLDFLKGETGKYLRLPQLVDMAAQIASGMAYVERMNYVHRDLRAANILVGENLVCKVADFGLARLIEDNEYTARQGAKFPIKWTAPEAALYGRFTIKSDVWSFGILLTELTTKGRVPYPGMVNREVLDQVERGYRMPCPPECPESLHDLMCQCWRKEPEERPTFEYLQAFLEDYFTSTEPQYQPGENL

Row | Structure (SMILES) | IC50 (SRC) [µM] | IC50 ([1]; 6 h) [µM] | IC50 (RBE cells) [µM] | IC50 [1] [µM]
1 | C=CC(=O)N1CC[C@@H](N2CC(C#Cc3c(-c4ccc(Oc5ccsn5)cc4)c4c(N)ncnc4n3C)C2)[C@@H](O)C1 [II-12] | 0.01 to 1 | 0.01 to 1 | 0.01 to 1 | –
2 | C=CC(=O)N1CCC(N2CC(C#Cc3c(-c4ccc(Br)c(OC)c4)c4c(N)ncnc4n3C(C)C)C2)CC1 [II-161, 1-(4-(3-((4-amino-5-(4-bromo-3-methoxyphenyl)-7-isopropyl-7H-pyrrolo[2,3-d]pyrimidin-6-yl)ethynyl)azetidin-1-yl)piperidin-1-yl)prop-2-en-1-one] | ≤ 0.01 | 0.01 to 1 | 0.01 to 1 | –
3 | C=CC(=O)N1C[C@@H]2[C@@H](C#Cc3c(-c4ccc(Oc5ccccn5)cc4)c4c(N)ncnc4n3C3CCOC3)[C@@H]2C1 (mixture of isomers) [II-23] | 0.01 to 1 | – | ≤ 0.01 | ≤ 0.01
4 | C=CC(=O)N1CC[C@@H](N2CC(C#Cc3c(-c4ccc5c(c4)N(C)CCO5)c4c(N)ncnc4n3C)C2)[C@@H](O)C1 [II-77] | 1 to 10 | – | 1 to 10 | 1 to 10
5 | C=CC(=O)N1CCC(N2CC(C#Cc3c(-c4ccc(Oc5ccccc5)c(OC)n4)c4c(N)ncnc4n3C)C2)CC1CO (stereo not drawn) [II-329] | 0.01 to 1 | – | 0.01 to 1 | 0.01 to 1
6 | C=CC(=O)N1CCC(N2CC(C#Cc3c(-c4cccc(Cl)c4OC)c4c(N)ncnc4n3C)C2)CC1 [II-264] | 1 to 10 | 1 to 10 | 1 to 10 | –
7 | COc1cc(Oc2cccc(F)c2)ccc1-c1c(C#C[C@@H]2[C@H]3CN(C(=O)/C=C/CN(C)C)C[C@@H]23)n(C)c2ncnc(N)c12 [II-45] | 0.01 to 1 | – | 0.01 to 1 | 0.01 to 1
8 | C=CC(=O)N1CC[C@@H](N2CC(C#Cc3c(-c4ccc(OC5CC5)cc4)c4c(N)ncnc4n3C)C2)[C@@H](O)C1 [II-70] | 1 to 10 | – | 0.01 to 1 | 0.01 to 1
9 | C=CC(=O)N1CCC(N2CC(C#Cc3c(-c4ccc(Cl)cc4)c4c(N)ncnc4n3CCOC)C2)CC1 [II-85] | 0.01 to 1 | – | 0.01 to 1 | 0.01 to 1
10 | Cn1c(C#CC2CCCN(C(=O)/C=C/CN3CCCCC3)CC2)c(-c2ccc(Oc3ccccc3)cc2)c2c(N)ncnc21 (stereo not drawn) [II-180, (E)-1-(4-((4-amino-7-methyl-5-(4-phenoxyphenyl)-7H-pyrrolo[2,3-d]pyrimidin-6-yl)ethynyl)azepan-1-yl)-4-(piperidin-1-yl)but-2-en-1-one formate] | 0.01 to 1 | 1 to 10 | 1 to 10 | –
11 | C=CS(=O)(=O)N1CC[C@@H](N2CC(C#Cc3c(-c4ccc(Oc5ccccc5)c(OC)c4)c4c(N)ncnc4n3C)C2)[C@@H](O)C1 [II-82] | ≤ 0.01 | – | ≤ 0.01 | 0.01 to 1

Continued, in another order:

Row | IC50 (SRC) [µM] | Structure (SMILES) | IC50 ([1]; 6 h) [µM] | IC50 (RBE cells) [µM] | IC50 [1] [µM]
12 | ≤ 0.01 | C=CC(=O)NCC(=O)N1C[C@@H]2[C@@H](C#Cc3c(-c4c(Cl)ccc5c4OCO5)c4c(N)ncnc4n3C)[C@@H]2C1 [II-39] | – | ≤ 0.01 | ≤ 0.01
13 | 0.01 to 1 | C=CC(=O)N1CC[C@@H](N2CC(C#Cc3c(-c4ccc(Oc5cccc(C)n5)c(OC)c4)c4c(N)ncnc4n3C)C2)[C@H](O)C1 [II-217, 1-((3R,4R)-4-(3-((4-amino-5-(3-methoxy-4-((6-methylpyridin-2-yl)oxy)phenyl)-7-methyl-7H-pyrrolo[2,3-d]pyrimidin-6-yl)ethynyl)azetidin-1-yl)-3-hydroxypiperidin-1-yl)prop-2-en-1-one] | 0.01 to 1 | 0.01 to 1 | –
14 | ≤ 0.01 | Cn1c(C#CC2CC3(C2)CN(C(=O)/C=C/CN2CCC2)C3)c(-c2ccc(Oc3ccccc3)cc2)c2c(N)ncnc21 [II-173, (E)-1-(6-((4-amino-7-methyl-5-(4-phenoxyphenyl)-7H-pyrrolo[2,3-d]pyrimidin-6-yl)ethynyl)-2-azaspiro[3.3]heptan-2-yl)-4-(azetidin-1-yl)but-2-en-1-one] | 0.01 to 1 | ≤ 0.01 | –
15 | ≤ 0.01 | Cn1c(C#CC2CC3(C2)CN(C(=O)/C=C/CN2CC(O)C2)C3)c(-c2ccc(Oc3ccccc3)cc2)c2c(N)ncnc21 [II-174, (E)-1-(6-((4-amino-7-methyl-5-(4-phenoxyphenyl)-7H-pyrrolo[2,3-d]pyrimidin-6-yl)ethynyl)-2-azaspiro[3.3]heptan-2-yl)-4-(3-hydroxyazetidin-1-yl)but-2-en-1-one] | 0.01 to 1 | 0.01 to 1 | –
16 | ≤ 0.01 | CCC(=O)N1C[C@@H]2[C@@H](C#Cc3c(-c4ccc(F)c5c4OCO5)c4c(N)ncnc4n3C(C)C)[C@@H]2C1 [II-133] | – | 0.01 to 1 | 0.01 to 1
17 | 0.01 to 1 | C=CC(=O)N1CC[C@@H](N2CC(C#Cc3c(-c4ccc(Oc5cccc(C)n5)c(Cl)c4)c4c(N)ncnc4n3C)C2)[C@@H](O)C1 [II-20] | – | 0.01 to 1 | 0.01 to 1
18 | 1 to 10 | C=CC(=O)N1CCC(N2CC(C#Cc3c(-c4ccc(OC5COC5)cc4)c4c(N)ncnc4n3C(C)C)C2)CC1 [II-88] | – | 1 to 10 | 1 to 10
19 | 0.01 to 1 | C=CC(=O)N1CC[C@@H](N2CC(C#Cc3c(-c4ccc(Cl)c(OC)n4)c4c(N)ncnc4n3C)C2)[C@@H](O)C1 [II-318] | – | 0.01 to 1 | 0.01 to 1
20 | ≤ 0.01 | C=CC(=O)N1CCC(N2CC(C#Cc3c(-c4ccc(Oc5ccccc5)cc4)c4c(N)ncnc4n3C(C)C)C2)CC1 [Example I-44] | ≤ 0.01 | ≤ 0.01 | –
21 | 0.01 to 1 | C=CC(=O)N1CC[C@H](N2CC(C#Cc3c(-c4ccc(Cl)c(C)n4)c4c(N)ncnc4n3C(C)C)C2)[C@H](F)C1 [II-328] | – | 0.01 to 1 | 0.01 to 1
22 | ≤ 0.01 | C=CC(=O)N1CC2(CC(C#Cc3c(-c4ccc(Oc5ccccc5)cc4)c4c(N)ncnc4n3C(C)C)C2)C1 [Example I-19] | ≤ 0.01 | ≤ 0.01 | –
23 | ≤ 0.01 | C=CC(=O)N1CCC(N2CC(C#Cc3c(-c4cccc5c4OCO5)c4c(N)ncnc4n3C(C)C)C2)C(O)C1 (stereo not drawn) [II-108] | – | ≤ 0.01 | ≤ 0.01
24 | 1 to 10 | C=CC(=O)N1CC2C(C#Cc3c(-c4ccc(Cl)c5c4OC(F)(F)O5)c4c(N)ncnc4n3C)C2C1 (stereo not drawn) [II-128] | – | 0.01 to 1 | 1 to 10
25 | ≤ 0.01 | C=CC(=O)N1CC[C@H](N2CC(C#Cc3c(-c4ccc(Cl)c(C)c4)c4c(N)ncnc4n3CC)C2)[C@H](O)C1 [II-113] | – | 0.01 to 1 | 0.01 to 1
26 | 0.01 to 1 | C=CC(=O)N1CCC(N2CC(C#Cc3c(-c4ccc(Oc5ccccc5)cc4)c4c(N)ncnc4n3[C@H](C)CO)C2)CC1 [II-168, (R)-1-(4-(3-((4-amino-7-(1-hydroxypropan-2-yl)-5-(4-phenoxyphenyl)-7H-pyrrolo[2,3-d]pyrimidin-6-yl)ethynyl)azetidin-1-yl)piperidin-1-yl)prop-2-en-1-one] | ≤ 0.01 | ≤ 0.01 | –
27 | 0.01 to 1 | C=CC(=O)NC1(C(=O)N2CCC(C#Cc3c(-c4ccc(Oc5ccccc5)cc4)c4c(N)ncnc4n3C)CC2)CN(C)C1 [II-196, N-(3-(4-((4-amino-7-methyl-5-(4-phenoxyphenyl)-7H-pyrrolo[2,3-d]pyrimidin-6-yl)ethynyl)piperidine-1-carbonyl)-1-methylazetidin-3-yl)acrylamide] | ≤ 0.01 | ≤ 0.01 | –
